Assay results taken from ChEMBL document CHEMBL1201862, “PubChem BioAssay data set” (2004).
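Briefly, cells in 96-well plates were exposed to five compound concentrations for 48 h, and endpoints were estimated by linear interpolation. The concentration for 50% growth inhibition is given as GI50.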 Calls of active or inactive are those of the source. Rule as the data show it: active = GI50 up to about 1.1 µM and inactive = higher.

Experiments:
Experiment in all cases: growth of human tumour cells (NCI), 48 h
SNB-19 = tested on: SNB-19
A549 = tested on: A549
NCI-H23 = tested on: NCI-H23
IGROV-1 = tested on: IGROV-1
SF-295 = tested on: SF-295
MCF7 = tested on: MCF7
T47D = tested on: T47D
ACHN = tested on: ACHN
OVCAR-8 = tested on: OVCAR-8
NCI/ADR-RES = tested on: NCI/ADR-RES
OVCAR-4 = tested on: OVCAR-4
786-0 = tested on: 786-0
SF-539 = tested on: SF-539
NCI-H522 = tested on: NCI-H522
U-251 = tested on: U-251
CCRF-CEM = tested on: CCRF-CEM
SK-MEL-2 = tested on: SK-MEL-2
PC-3 = tested on: PC-3
HT-29 = tested on: HT-29
DU-145 = tested on: DU-145

Measured: GI50

COC(=O)/C(=N\NC(=S)NN)C(C(=O)OC)C(=O)C(=O)Nc1cccc(C(F)(F)F)c1 (stereo not drawn)
inactive: SNB-19 > 100 µM | A549 > 100 µM | NCI-H23 > 100 µM | IGROV-1 > 100 µM | SF-295 > 100 µM | MCF7 > 100 µM | T47D > 100 µM | ACHN > 100 µM | OVCAR-8 > 100 µM | NCI/ADR-RES > 100 µM | OVCAR-4 > 100 µM | 786-0 > 100 µM | SF-539 > 100 µM | NCI-H522 > 100 µM | U-251 > 100 µM | CCRF-CEM > 100 µM | SK-MEL-2 > 100 µM | PC-3 > 100 µM | HT-29 > 100 µM

COc1ccc(/C=C2\CCC(C)c3c2nc(N)c(C#N)c3-c2ccc(OC)c(OC)c2)cc1OC (stereo not drawn)
inactive: SNB-19 72.4 µM | DU-145 20.7 µM | NCI-H23 5.6 µM | IGROV-1 15.1 µM | SF-295 6 µM | MCF7 5.65 µM | T47D 1.13 µM | ACHN 15.7 µM | OVCAR-8 9.82 µM | NCI/ADR-RES 6.73 µM | 786-0 8.89 µM | SF-539 27.4 µM | U-251 9.44 µM | CCRF-CEM 3.89 µM | SK-MEL-2 2.42 µM | PC-3 2.92 µM | HT-29 6.25 µM

CC(C)=C[C@H]1CCC2(OCCO2)[C@]1(C)COCc1ccccc1
inactive: SNB-19 37.7 µM | A549 33.3 µM | NCI-H23 25.8 µM | SF-295 40 µM | MCF7 41.3 µM | T47D 35.2 µM | ACHN 34.4 µM | OVCAR-8 38.6 µM | NCI/ADR-RES 36.8 µM | OVCAR-4 33.8 µM | 786-0 31 µM | SF-539 21.7 µM | NCI-H522 29 µM | CCRF-CEM 16.1 µM | SK-MEL-2 25.5 µM | PC-3 39.9 µM

O=C1CCCCC1=C(I)I
inactive: SNB-19 12.1 µM | A549 37.8 µM | DU-145 19.7 µM | IGROV-1 15.5 µM | SF-295 24.8 µM | T47D 15 µM | ACHN 17.6 µM | OVCAR-8 33.9 µM | OVCAR-4 12.1 µM | 786-0 16.5 µM | SF-539 19.5 µM | U-251 16.3 µM | CCRF-CEM 19.1 µM | SK-MEL-2 16.7 µM | PC-3 16.5 µM

O=C(CC(=O)N1N=C(N2c3ccccc3Sc3ccccc32)CC1c1ccccc1)Nc1ccccc1Cl (stereo not drawn)
inactive: SNB-19 > 100 µM | A549 > 100 µM | DU-145 > 100 µM | NCI-H23 > 100 µM | IGROV-1 > 100 µM | SF-295 > 100 µM | T47D > 100 µM | ACHN > 100 µM | OVCAR-8 > 100 µM | NCI/ADR-RES > 100 µM | OVCAR-4 > 100 µM | 786-0 > 100 µM | SF-539 > 100 µM | NCI-H522 > 100 µM | U-251 > 100 µM | CCRF-CEM > 100 µM | SK-MEL-2 > 100 µM | PC-3 > 100 µM | HT-29 > 100 µM

O=C(Nc1ccc(C(F)(F)F)cc1[N+](=O)[O-])c1cccnc1
inactive: SNB-19 9.48 µM | A549 6.75 µM | DU-145 7.08 µM | NCI-H23 33.2 µM | IGROV-1 6.44 µM | SF-295 4.42 µM | MCF7 2.22 µM | T47D > 100 µM | ACHN 7.01 µM | NCI/ADR-RES 6.9 µM | OVCAR-4 4.43 µM | 786-0 10.7 µM | SF-539 3.37 µM | NCI-H522 3.94 µM | U-251 5 µM | CCRF-CEM 4.85 µM | SK-MEL-2 4.21 µM | HT-29 2.04 µM

O=C(Nc1ccc2ccccc2c1)Nn1cnnc1
inactive: SNB-19 > 100 µM | A549 > 100 µM | DU-145 > 100 µM | NCI-H23 > 100 µM | IGROV-1 > 100 µM | SF-295 > 100 µM | MCF7 > 100 µM | T47D > 100 µM | ACHN > 100 µM | OVCAR-8 > 100 µM | OVCAR-4 > 100 µM | 786-0 > 100 µM | SF-539 > 100 µM | NCI-H522 > 100 µM | U-251 > 100 µM | CCRF-CEM > 100 µM | SK-MEL-2 > 100 µM | PC-3 > 100 µM | HT-29 > 100 µM

COc1nc2c(c(=O)n1C)N=C(c1ccc(Cl)cc1)CC(c1ccccc1)N2 (stereo not drawn)
inactive: SNB-19 38.8 µM | A549 36.5 µM | DU-145 33.3 µM | NCI-H23 25.2 µM | IGROV-1 17.2 µM | SF-295 18.8 µM | MCF7 14.8 µM | ACHN 20.9 µM | OVCAR-8 26.8 µM | NCI/ADR-RES 22.2 µM | OVCAR-4 13.3 µM | 786-0 33.8 µM | SF-539 17.7 µM | NCI-H522 17.9 µM | U-251 35.1 µM | CCRF-CEM 27.7 µM | SK-MEL-2 18.7 µM | PC-3 37.7 µM | HT-29 18.7 µM

Cc1ccc2c(c1)-c1nc(N)c(C#N)c(-c3ccccc3)c1CCS2(=O)=O
inactive: SNB-19 23.6 µM | A549 55 µM | DU-145 65.2 µM | NCI-H23 87.9 µM | IGROV-1 31.3 µM | T47D > 100 µM | ACHN 38.5 µM | OVCAR-8 23.1 µM | NCI/ADR-RES 38.5 µM | OVCAR-4 16.7 µM | 786-0 19 µM | NCI-H522 39.2 µM | U-251 32.5 µM | SK-MEL-2 45.8 µM | PC-3 49.2 µM | HT-29 > 100 µM

C=CC(=O)Nc1ccc(NC(=O)C=C)c2c1C(=O)c1ccccc1C2=O
inactive: SNB-19 > 100 µM | A549 > 100 µM | NCI-H23 48.6 µM | IGROV-1 > 100 µM | SF-295 10.8 µM | MCF7 21 µM | T47D > 100 µM | ACHN 61.7 µM | OVCAR-8 27.7 µM | NCI/ADR-RES > 100 µM | 786-0 21.5 µM | SF-539 24.8 µM | NCI-H522 16.6 µM | U-251 20.9 µM | SK-MEL-2 69.3 µM | PC-3 40.8 µM | HT-29 45.5 µM

Cc1cc(C)c2c(c1)C(=O)/C(=C/c1ccccc1C(=O)O)C2
inactive: SNB-19 50.1 µM | A549 65.6 µM | DU-145 > 100 µM | IGROV-1 > 100 µM | SF-295 52.2 µM | MCF7 88.7 µM | T47D 39 µM | ACHN > 100 µM | OVCAR-8 68.4 µM | OVCAR-4 45.1 µM | 786-0 > 100 µM | SF-539 25.9 µM | NCI-H522 20.6 µM | U-251 35.7 µM | CCRF-CEM 44.2 µM | SK-MEL-2 > 100 µM | PC-3 43.2 µM | HT-29 59 µM
